Measurements reported in patent publication US8198323B2, “Curcumin analogues and uses thereof” (The University of North Carolina at Chapel Hill, priority 2004, dated 2012).
Residue numbers refer to the chain shown, from its start. Entries after “also recorded” stand apart in the source; their conditions may differ.

Columns and labels:
Format in all cases: cell-based
wild type AR [1] = biological target: T1, wild type AR (Homo sapiens, UniProt P10275); assay: AR transactivation assay (MMTV-luciferase), PC-3 cells transfected with wild-type AR; parameters: expressed in transfected cells; host or cells: PC-3; conditions: PC-3 cell assay system; FIG. 3A
T1 sequence (P10275 1-920): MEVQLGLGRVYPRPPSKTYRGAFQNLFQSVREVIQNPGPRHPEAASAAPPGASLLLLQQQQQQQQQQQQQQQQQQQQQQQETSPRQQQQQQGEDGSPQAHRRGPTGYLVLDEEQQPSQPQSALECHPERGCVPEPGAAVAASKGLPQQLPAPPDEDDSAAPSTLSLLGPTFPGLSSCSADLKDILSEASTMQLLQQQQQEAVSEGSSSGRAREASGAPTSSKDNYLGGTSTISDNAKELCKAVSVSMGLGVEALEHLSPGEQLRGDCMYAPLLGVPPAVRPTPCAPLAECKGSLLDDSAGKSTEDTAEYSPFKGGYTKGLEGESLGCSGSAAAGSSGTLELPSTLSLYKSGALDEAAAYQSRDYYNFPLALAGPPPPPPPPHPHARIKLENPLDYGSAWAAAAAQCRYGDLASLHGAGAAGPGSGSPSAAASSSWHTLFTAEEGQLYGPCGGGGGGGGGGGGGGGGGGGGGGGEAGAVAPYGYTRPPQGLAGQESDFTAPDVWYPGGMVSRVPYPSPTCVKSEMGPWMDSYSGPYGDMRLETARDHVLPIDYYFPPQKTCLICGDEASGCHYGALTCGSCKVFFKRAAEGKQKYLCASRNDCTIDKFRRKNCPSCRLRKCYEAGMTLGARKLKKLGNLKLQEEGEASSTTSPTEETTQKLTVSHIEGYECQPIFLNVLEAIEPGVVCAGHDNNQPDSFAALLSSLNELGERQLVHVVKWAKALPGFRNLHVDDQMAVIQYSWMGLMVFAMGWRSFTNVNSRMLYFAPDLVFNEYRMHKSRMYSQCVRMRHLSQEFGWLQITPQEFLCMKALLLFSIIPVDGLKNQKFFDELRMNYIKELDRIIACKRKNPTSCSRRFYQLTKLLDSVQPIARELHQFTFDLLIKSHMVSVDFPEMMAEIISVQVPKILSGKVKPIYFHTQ
Method: (§1) Cell Culture and Transfections. Human prostate cancer DU145 and PC-3 cells were maintained in Dulbecco's minimum essential medium (DMEM) containing penicillin (25 units/mL), streptomycin (25 μg/mL), and 10% fetal calf serum (FCS). For AR transactivation assay, PC-3 cells were transfected with an AR expression plasmid and reporter gene. Because of a low content of endogenous AR coactivators, DU-145 cells were transfected with expression plasmids for AR and ARA70, and reporter gene.
Transfections were performed using the SuperFect kit according to manufacturer's procedures (Qiagen, Chatsworth, Calif.). Briefly, 1×10^5 cells were plated on 35-mm dishes 24 h before transfection, and then a reporter plasmid, MMTV-Luciferase, which contains MMTV-LTR promoter and AR-binding element, was co-transfected with an AR expression plasmid (wild type or mutant), or pSG5ARA70. PRL-TK was used as an internal control for transfection efficiency. The total amount of DNA was adjusted to […] with pSG5 in all transcriptional activation assays. After a 2 h transfection, the medium was changed to DMEM-10% charcoal stripped serum medium, and 14-16 h later, the cells were treated with DHT, antiandrogen, or test compounds. After another 14-16 h, the cells were harvested and tested for luciferase activity in luciferase assays (Promega, Dual Luciferase Assay System, Madison, Wis.). […]

mutant LNCaP AR = biological target: T2, mutant LNCaP AR (Homo sapiens, UniProt P10275, T878A); assay: AR transactivation assay (MMTV-luciferase), DU-145 cells transfected with mutant LNCaP AR and ARA70; conditions: FIG. 3B
T2 construct: expressed in transfected cells; host or cells: DU-145
T2 sequence (P10275 1-920 T878A): T1 sequence (P10275 1-920) with T878A
Method: Cell Culture and Transfections. Human prostate cancer DU145 and PC-3 cells were maintained in Dulbecco's minimum essential medium (DMEM) containing penicillin (25 units/mL), streptomycin (25 μg/mL), and 10% fetal calf serum (FCS). For AR transactivation assay, PC-3 cells were transfected with an AR expression plasmid and reporter gene. Because of a low content of endogenous AR coactivators, DU-145 cells were transfected with expression plasmids for AR and ARA70, and reporter gene. The conditions were followed as previously described in Miyamoto et al., Proc. Natl. Acad. Sci. USA, 95, 7379-7384 (1998), with minor modifications.
(§2) Transfections were performed using the SuperFect kit according to manufacturer's procedures (Qiagen, Chatsworth, Calif.). Briefly, 1×10^5 cells were plated on 35-mm dishes 24 h before transfection, and then a reporter plasmid, MMTV-Luciferase, which contains MMTV-LTR promoter and AR-binding element, was co-transfected with an AR expression plasmid (wild type or mutant), or pSG5ARA70. PRL-TK was used as an internal control for transfection efficiency. The total amount of DNA was adjusted to […] with pSG5 in all transcriptional activation assays. After a 2 h transfection, the medium was changed to DMEM-10% charcoal stripped serum medium, and 14-16 h later, the cells were treated with DHT, antiandrogen, or test compounds. After another 14-16 h, the cells were harvested and tested for luciferase activity in luciferase assays (Promega, Dual Luciferase Assay System, Madison, Wis.). Data were expressed in relative luciferase activity as compared to an internal luciferase positive control.

wild type AR [2] = biological target: T1, wild type AR; assay: AR transactivation assay (MMTV-luciferase), DU-145 cells transfected with wild-type AR and ARA70; parameters: expressed in transfected cells; host or cells: DU-145; conditions: FIG. 3C; for antiandrogen activity (in words): DU-145 cells, wild-type AR and ARA70; for reduction (antiandrogen activity): DU-145 cells transfected with wild-type AR and ARA70
Method: as §1, §2

mutant AR in LNCaP cells = biological target: T3, mutant AR in LNCaP cells (Homo sapiens, UniProt P10275, T878A); assay: LNCaP AR transactivation assay / LNCaP cell growth assay (Table 2); conditions: 1 nM DHT, symbols 0, +, ++ not defined
T3 construct: LNCaP cells, which express a clinically relevant mutant AR; endogenous in cells; host or cells: LNCaP
T3 sequence (P10275 1-920 T878A): T1 sequence (P10275 1-920) with T878A
Method: (§3) Cell culture and transfection—Human prostate cancer LNCaP and PC-3 cells were maintained in RPMI medium and Dulbecco's minimum essential medium (DMEM), respectively. Both media were strengthened with penicillin (25 units/mL), streptomycin (25 μg/mL), and 10% fetal calf serum. Androgen receptor transactivation assay, an androgen-dependent reporter gene transcription test, was employed as the primary screening for potential antiandrogen identification. This assay was first performed in LNCaP cells, which express a clinically relevant mutant AR. Once potential compounds were indicated by LNCaP AR transactivation assay, they were re-examined for their potential activity against wild type AR. Wild type AR transactivation assay was performed in PC-3 host cells, which lack an endogenous, functional AR.
(§4) Our previously described conditions for cell transfection were followed (Ohtsu et al, J Medicinal Chem 45: 5037-5042 (2002); Ohtsu et al., Bioorganic & Medicinal Chemistry 11:5083-5090 (2003)). In brief, cells were plated in 24- or 48-well tissue culture dishes twenty-four (PC-3 cells) or forty-eight (LNCaP cells) hours prior to transfection. Subsequently, LNCaP cells were transfected with a reporter gene, MMTV-luciferase, which contains MMTV-LTR promoter and androgen receptor binding element, and PRL-SV40, which served as an internal control for transfection efficiency. PC-3 cells were transfected with a wild type AR expression plasmid, pSG5AR, in addition to the above-mentioned MMTV-luciferase reporter gene and PRL-SV40 internal control. SuperFect (Qiagen, Chatsworth, Calif.) was employed as the transfection reagent following manufacturer's recommendations. At the end of a five-hour transfection, the medium was changed to DMEM or RPMI supplemented with 10% charcoal dextran-stripped, androgen-depleted serum. Twenty-four hours later, the cells were treated with 1 nM of DHT and/or test compounds at the designated concentration for another twenty-four hours. The cells were harvested for luciferase activity assay using Dual Luciferase Assay System (Promega, Madison, Wis.). The derived data were expressed as relative luciferase activity normalized to the internal luciferase control. DHT incubation induced a marked expression of reporter gene.
LNCaP cell growth assay thus was used as an alternative to confirm potential antiandrogens identified by the above-mentioned AR transactivation assay. An MTT analysis, relying upon the conversion of a colorless substrate to reduced tetrazolium by the mitochondrial dehydrogenase, was used. The experimental conditions were detailed elsewhere (Ohtsu et al., Bioorganic & Medicinal Chemistry 11:5083-5090 (2003)). Briefly, cells were plated in 96-well tissue culture plates and then incubated for 5 consecutive days in the presence of 1 nM of DHT and/or test compounds in 10% charcoal dextran-stripped serum-containing RPMI. At the end of incubation, the cells were given MTT (5 mg/ml in PBS) for three hours at 37° C. The resultant precipitate was dissolved in a lysis buffer and then quantitated at a wavelength of 595 nm using a microplate reader. To ensure the accuracy of data derived from the MTT analysis, cell count was performed using duplicate samples.

wild type AR [3] = biological target: T1, wild type AR; assay: Wild type AR transactivation assay in PC-3 host cells (Table 2); parameters: expressed in transfected cells; host or cells: PC-3; conditions: PC-3 cells transfected with wild type AR, 1 nM DHT; symbols 0, +, ++ not defined
Method: as §3, §4

COc1cc(/C=C/C(=O)/C=C(O)/C=C/c2ccc(O)c(OC)c2)ccc1O [Compound 1, Curcumin]
antagonistic activity against the AR (in words) (wild type AR [1]): inactive | antagonistic activity against the AR (in words) (mutant LNCaP AR): inactive | antiandrogen activity (in words) (wild type AR [2]): inactive; also recorded: not active

COc1cc(C=CC(=O)CC(=O)C=Cc2ccc(OC)c(OC)c2)ccc1O [Compound 9, Monomethylcurcumin]
antagonistic activity against the AR (in words) (mutant LNCaP AR): significantly less active than 4

COC(=O)COc1ccc(C=CC(=O)CC(=O)C=Cc2ccc(OCC(=O)OC)c(OC)c2)cc1OC [Compound 20]
reduction (antiandrogen activity) (wild type AR [2]): 54% | antiandrogen activity (in words) (wild type AR [2]): comparable or more potent antiandrogen activity than HF

CCOC(=O)CCC(C(=O)C=Cc1ccc(O)c(OC)c1)C(=O)C=Cc1ccc(O)c(OC)c1 (centres unmarked) [Compound 22]
reduction (antiandrogen activity) (wild type AR [2]): 53.8% | antiandrogen activity (in words) (wild type AR [2]): comparable or more potent antiandrogen activity than HF

COc1ccc(C(=O)CC(=O)c2ccc(OC)c(OC)c2)cc1OC [Compound 39, 1,3-bis(3,4-dimethoxyphenyl)-1,3-propandione]
antagonistic activity against the AR (in words) (wild type AR [1]): less active than 4 | antagonistic activity against the AR (in words) (mutant LNCaP AR): less active than 4 | antiandrogen activity (in words) (wild type AR [2]): comparable or more potent antiandrogen activity than HF

COc1ccc(/C=C/C(=O)/C=C(O)/C=C/c2ccc(OC)cc2F)c(F)c1 [HOJ-9]
anti-AR activity, LNCaP (mutant AR in LNCaP cells): 0

O=C(/C=C(O)/C=C/c1ccc(O)o1)/C=C/c1ccc(O)o1 [LL-7]
anti-AR activity, wrAR/PC3 (wild type AR [3]): 0

COc1cc(/C=C/C(=O)/C=C/c2ccc(O)c(OC)c2)ccc1O [LL-10]
anti-AR activity, wrAR/PC3 (wild type AR [3]): 0

COc1cc(/C=C/C(O)=C/C(=O)/C=C/c2ccc(OC)c(OC)c2)ccc1O [LL-17]
anti-AR activity, LNCaP (mutant AR in LNCaP cells): 0

COc1cc(/C=C/C(O)=C/C(=O)/C=C/c2ccc(O)cc2)ccc1O [LL-18]
anti-AR activity, LNCaP (mutant AR in LNCaP cells): 0

COc1ccc(/C=C/C(=O)/C=C(O)/C=C/c2ccc(OC)c(O)c2)cc1O [LL-27B]
anti-AR activity, LNCaP (mutant AR in LNCaP cells): 0

COc1ccc(/C=C/C(=O)/C=C(O)/C=C/c2ccc(OC)c(OC)c2OC)c(OC)c1OC [LL-32B]
anti-AR activity, LNCaP (mutant AR in LNCaP cells): 0

COc1ccc(/C=C/C(=O)/C=C(O)/C=C/c2ccc(OC)c(OC)c2OC)cc1OC [LL-35]
anti-AR activity, LNCaP (mutant AR in LNCaP cells): 0

COc1cc(OC)c(OC)cc1/C=C/C(O)=C/C(=O)/C=C/c1ccc(OC)c(OC)c1 [LL-36]
anti-AR activity, LNCaP (mutant AR in LNCaP cells): 0

COc1ccc(/C=C/C(=O)CC(O)/C=C/c2ccc(OC)c(OC)c2)cc1OC (centres unmarked) [LL-55]
anti-AR activity, wrAR/PC3 (wild type AR [3]): 0

COc1ccc(/C=C/C(=O)C(C)(F)C(=O)/C=C/c2ccc(OC)c(OC)c2)cc1OC [LL-62]
anti-AR activity, wrAR/PC3 (wild type AR [3]): 0

CCOC(=O)/C=C/C(C(=O)/C=C/c1ccc(O)c(OC)c1)=C(O)\C=C\c1ccc(O)c(OC)c1 [LL-66]
anti-AR activity, wrAR/PC3 (wild type AR [3]): 0
